The subject of test [1] is i.v. hαCGRP-induced increase in middle meningeal artery diameter and facial blood flow. Kind of test: Validation of facial blood flow as surrogate for intracranial artery dilation in the rat. In kind it is in vivo. Particulars: pretreatment, n=5 rats.
Test [2] has as its system CGRP-induced increase in laser Doppler facial blood flow. Kind of test: Inhibition of CGRP-induced increase in laser Doppler facial blood flow in non-human primate. In kind it is in vivo, common marmoset (Callithrix jacchus). The procedure:
FIG. 4. […] Data are peak % change from baseline±sem, with each animal serving as its own control.
Saturation/Scatchard Analysis. […] Saturation data were analyzed using a one site binding equation to estimate apparent equilibrium dissociation constant (Kd) and the maximum number of binding sites (Bmax) (Prizm v4.0, Graphpad). […] Functional Antagonism/Schild analysis. Agonist stimulation of CGRP receptor complex leads to cyclic AMP (adenosine 3′5′-cyclic monophosphate) production via Gs-dependent activation of an adenylate cyclase (Juaneda C et al., TiPS, 2000; 21:432-438). Consequently, CGRP receptor antagonists inhibit CGRP-induced cyclic AMP formation in SK-N-MC cells which natively express the CGRP receptor complex (Doods H et al., Br J Pharmacol, 2000; 129(3):420-423). […] A Schild analysis format was used, which allowed investigation of the mechanism of antagonism. […] Various concentrations of CGRP were added and the cells were allowed to incubate 30 min at room temperature. The cells were lysed with lysis reagent and cAMP concentrations were determined by HTRF according to the manufacturer's instructions. A standard curve using known quantities of cAMP was evaluated in parallel to allow conversion of HTRF ratio to nM cAMP. The resulting curves were then evaluated using a Gaddum/Schild equation individually and with global fitting (Prizm v4.0, Graphpad). […] To obtain a global fit the following parameters were shared (top, bottom, logEC50, Hill slope and pA2) and all curves were fit simultaneously. […] Non-Terminal Method for Assessing In Vivo Efficacy of Small Molecule CGRP-Receptor Antagonists in Mammals Overview. […] Non-human primates (e.g., marmosets) are the only animals known to have human-like CGRP receptor pharmacology conferred by the presence of the specific amino acid residue (Trp74) in their RAMP1 sequence which is responsible for the phenotype of the human receptor (Mallee et al. J Biol Chem 2002 277:14294). Since current migraine models primarily use rats (Escott et al. Brain Res 1995 669:93; Williamson et al. Cephalalgia 1997 17:525), or are invasive, terminal procedures in primates (Doods et al. Br J Pharmacol 2000 129:420), a novel non-invasive, survival model in non-human primates for in vivo efficacy assessment of CGRP-receptor antagonists was developed. […] Peptide and small-molecule CGRP-receptor antagonists were used to validate the non-human primate model. […] Animals. Adult male and female common marmosets (Callithrix jacchus) purchased from Harlan and weighing 350-550 g served as subjects. Anesthesia & Surgical Preparation. Animals are anesthetized by isoflurane inhalation in an induction chamber (4-5% rapid induction, maintained with 1-2.5%; Solomon et al., 1999).

Marks after values point to notes of the source that are not given here. No end group written: not given here.

On to “haCGRP(8-37): peptide antagonist, peptide fragment CGRP(8-37) (VTHRLAGLLSRSGGVVKNNFVPTNVGSKAF; ends and bridges not checked; UniProt P06881 90-119, looked up, fragment) [reference compound]”, for which, in test [1], the “inhibition of i.v. hαCGRP-induced increase in facial blood flow” value is recorded as 50% and the “inhibition of i.v. hαCGRP-induced increase in middle meningeal artery diameter” value came to 50%. In addition, the “% Inhibition” value in test [2] (1 mg/kg i.v., pretreat 0 min, 15 min, hαCGRP 10 μg/kg i.v.) is listed as 87.2* %. The “inhibition of i.v. CGRP-stimulated increases in primate facial blood flow” value in test [2] (pre-treatment) is recorded as “dose-dependently inhibited”.

The values are drawn from patent publication US8143403B2 (Bristol-Myers Squibb Company, priority 2008, dated 2012).
